Results published in patent US9873709B2 (priority 2013, dated 2018).

These compounds were tested on JAK1-dependent STAT6 phosphorylation downstream of IL-13 stimulation in TF-1 human erythroleukemia cells (assay: cells). Settings: TF-1, read-out: IL-13-pSTAT6 IC50.

| SMILES | IC50 [nM] |
| --- | --- |
| O=C(N[C@H]1CCCNC1)c1ccc(Nc2nc3c(C4=CCN(C(=O)CCC(F)(F)F)CC4)cccn3n2)cc1 [Example 2-138, N-[(3S)-3-piperidyl]-4-[[8-[1-(4,4,4-trifluorobutanoyl)-3,6-dihydro-2H-pyridin-4-yl]-[1,2,4]triazolo[1,5-a]pyridin-2-yl]amino]benzamide] | 61.9 |
| O=C(CCC(F)(F)F)N1CC=C(c2cccn3nc(Nc4ccc(C(=O)N5CCO[C@@H]6CNC[C@@H]65)cc4)nc23)CC1 [Example 2-139, 1-[4-[2-[4-[(4aS,7aR)-3,4a,5,6,7,7a-hexahydro-2H-pyrrolo[3,4-b][1,4]oxazine-4-carbonyl]anilino]-[1,2,4]triazolo[1,5-a]pyridin-8-yl]-3,6-dihydro-2H-pyridin-1-yl]-4,4,4-trifluoro-butane-1-one] | 358 |
| N#CCCN1CCN(C(=O)c2ccc(Nc3nc4c(C5=CCN(C(=O)CCC(F)(F)F)CC5)cccn4n3)cc2)CC1 [Example 2-142, 3-[4-[4-[[8-[1-(4,4,4-trifluorobutanoyl)-3,6-dihydro-2H-pyridin-4-yl]-[1,2,4]triazolo[1,5-a]pyridin-2-yl]amino]benzoyl]piperazin-1-yl]propanenitrile] | 6.6 |
| Cc1ccc(C2CCCN2C(=O)c2ccc(Nc3nc4c(C5=CCN(C(=O)CCC(F)(F)F)CC5)cccn4n3)cc2)nc1 (stereo not drawn) [Example 2-143, 4,4,4-trifluoro-1-[4-[2-[4-[2-(5-methyl-2-pyridyl)pyrrolidine-1-carbonyl]anilino]-[1,2,4]triazolo[1,5-a]pyridin-8-yl]-3,6-dihydro-2H-pyridin-1-yl]butan-1-one] | 7.9 |
| CN1CCN(C(=O)c2ccc(Nc3nc4c(C5=CCN(C(=O)CCC(F)(F)F)CC5)cccn4n3)cc2)CC(CO)C1 (stereo not drawn) [Example 2-144, 4,4,4-trifIuoro-1-[4-[2-[4-[6-(hydroxymethyl)-4-methyl-1,4-diazepane-1-carbonyl]anilino]-[1,2,4]triazolo[1,5-a]pyridin-8-yl]-3,6-dihydro-2H-pyridin-1-yl]butan-1-one] | 187 |
| O=C(CCC(F)(F)F)N1CC=C(c2cccn3nc(Nc4ccc(C(=O)N5CCCC5c5cccnc5)cc4)nc23)CC1 (stereo not drawn) [Example 2-145, 4,4,4-trifluoro-1-[4-[2-[4-[2-(3-pyridyl)pyrrolidine-1-carbonyl]anilino]-[1,2,4]triazolo[1,5-a]pyridin-8-yl]-3,6-dihydro-2H-pyridin-1-yl]butan-1-one] | 6.4 |
| O=C(CCC(F)(F)F)N1CC=C(c2cccn3nc(Nc4ccc(C(=O)N5Cc6cccnc6C5)cc4)nc23)CC1 [Example 2-146, 1-[4-[2-[4-(5,7-dihydropyrrolo[3,4-b]pyridine-6-carbonyl)anilino]-[1,2,4]triazolo[1,5-a]pyridin-8-yl]-3,6-dihydro-2H-pyridin-1-yl]-4,4,4-trifluoro-butan-1-one] | 6.5 |
| CC1CCN(CCNC(=O)c2ccc(Nc3nc4c(C5=CCN(C(=O)CCC(F)(F)F)CC5)cccn4n3)cc2)CC1 [Example 2-147, N-[2-(4-methyl-1-piperidyl)ethyl]-4-[[8-[1-(4,4,4-trifluorobutanoyl)-3,6-dihydro-2H-pyridin-4-yl]-[1,2,4]triazolo[1,5-a]pyridin-2-yl]amino]benzamide] | 6.6 |
| CN1CCC(C2CCCCN2C(=O)c2ccc(Nc3nc4c(C5=CCN(C(=O)CCC(F)(F)F)CC5)cccn4n3)cc2)CC1 (stereo not drawn) [Example 2-149, 4,4,4-trifluoro-1-[4-[2-[4-[2-(1-methyl-4-piperidyl)piperidine-1-carbonyl]anilino]-[1,2,4]triazolo[1,5-a]pyridin-8-yl]-3,6-dihydro-2H-pyridin-1-yl]butane-1-one] | 10.7 |
| CN1CCC(N(C(=O)c2ccc(Nc3nc4c(C5=CCN(C(=O)CCC(F)(F)F)CC5)cccn4n3)cc2)C2CC2)CC1 [Example 2-150, N-cyclopropyl-N-(1-methyl-4-piperidyl)-4-[[8-[1-(4,4,4-trifluorobutanoyl)-3,6-dihydro-2H-pyridin-4-yl]-[1,2,4]triazolo[1,5-a]pyridin-2-yl]amino]benzamide] | 8.3 |
| O=C(CCC(F)(F)F)N1CC=C(c2cccn3nc(Nc4ccc(C(=O)N5CCN6CCCCC6C5)cc4)nc23)CC1 (stereo not drawn) [Example 2-151, 1-[4-[2-[4-(1,3,4,6,7,8,9,9a-octahydropyrido[1,2-a]pyrazine-2-carbonyl)anilino]-[1,2,4]triazolo[1,5-a]pyridin-8-yl]-3,6-dihydro-2H-pyridin-1-yl]-4,4,4-trifluoro-butan-1-one] | 5.7 |
| CN(CCc1ccccn1)C(=O)c1ccc(Nc2nc3c(C4=CCN(C(=O)CCC(F)(F)F)CC4)cccn3n2)cc1 [Example 2-152, N-methyl-N-[2-(2-pyridyl)ethyl]-4-[[8-[1-(4,4,4-trifluorobutanoyl)-3,6-dihydro-2H-pyridin-4-yl]-[1,2,4]triazolo[1,5-a]pyridin-2-yl]amino]benzamide] | 9.3 |
| O=C(CCC(F)(F)F)N1CC=C(c2cccn3nc(Nc4ccc(C(=O)N5CCN(CCO)CC5)cc4)nc23)CC1 [Example 2-153, 4,4,4-trifluoro-1-[4-[2-[4-[4-(2-hydroxyethyl)piperazine-1-carbonyl]anilino]-[1,2,4]triazolo[1,5-a]pyridin-8-yl]-3,6-dihydro-2H-pyridin-1-yl]butan-1-one] | 28.6 |
| O=C(CCC(F)(F)F)N1CC=C(c2cccn3nc(Nc4ccc(C(=O)N5CCC(c6cc7cccnc7[nH]6)CC5)cc4)nc23)CC1 [Example 2-155, 4,4,4-trifluoro-1-[4-[2-[4-[4-(1H-pyrrolo[2,3-b]pyridin-2-yl)piperidine-1-carbonyl]anilino]-[1,2,4]triazolo[1,5-a]pyridin-8-yl]-3,6-dihydro-2H-pyridin-1-yl]butan-1-one] | 132 |
| O=C(CCC(F)(F)F)N1CC=C(c2cccn3nc(Nc4ccc(C(=O)N5CCC(c6ccccn6)CC5)cc4)nc23)CC1 [Example 2-156, 4,4,4-trifluoro-1-[4-[2-[4-[4-(2-pyridyl)piperidine-1-carbonyl]anilino]-[1,2,4]triazolo[1,5-a]pyridin-8-yl]-3,6-dihydro-2H-pyridin-1-yl]butan-1-one] | 8.3 |
| CC1CN(C2CCN(C(=O)c3ccc(Nc4nc5c(C6=CCN(C(=O)CCC(F)(F)F)CC6)cccn5n4)cc3)CC2)CC(C)O1 (stereo not drawn) [Example 2-157, 1-[4-[2-[4-[4-(2,6-dimethylmorpholin-4-yl)piperidine-1-carbonyl]anilino]-[1,2,4]triazolo[1,5-a]pyridin-8-yl]-3,6-dihydro-2H-pyridin-1-yl]-4,4,4-trifluoro-butan-1-one] | 4.7 |
| CN(C)[C@H]1CCN(C(=O)c2ccc(Nc3nc4c(C5=CCN(C(=O)CCC(F)(F)F)CC5)cccn4n3)cc2)C1 [Example 2-158, 1-[4-[2-[4-[(3S)-3-(dimethylamino)pyrrolidine-1-carbonyl]anilino]-[1,2,4]triazolo[1,5-a]pyridin-8-yl]-3,6-dihydro-2H-pyridin-1-yl]-4,4,4-trifluoro-butan-1-one] | 7.3 |
| CN1CCN(C(=O)C2CN(C(=O)c3ccc(Nc4nc5c(C6=CCN(C(=O)CCC(F)(F)F)CC6)cccn5n4)cc3)C2)CC1 [Example 2-159, 4,4,4-trifluoro-1-[4-[2-[4-[3-(4-methylpiperazine-1-carbonyl)azetidine-1-carbonyl]anilino]-[1,2,4]triazolo[1,5-a]pyridin-8-yl]-3,6-dihydro-2H-pyridin-1-yl]butan-1-one] | 35.1 |
